Each substance was assayed on Xanthomonas campestris p.v. campestris (assay: Cross-streak culture screening for antagonistic bacteria). Conditions: cross application on potato dextrose-broth-agar medium, 25° C., 3 days.
Format: cell-based
Experimental: Filamentous fungi and bacteria (hereinafter referred to as “candidate microorganisms” in general) isolated from a seed or a soil is streaked on a same medium as that of the pathogenic microorganisms of the seed borne disease which is a target to be controlled in a dual or cross manner and are cultured for several days under a temperature suitable for growing the pathogenic microorganisms (dual culture). After the microorganism have been cultured, growth thereof are observed; then, the one which apparently controlled the growth of the pathogenic microorganisms by the candidate microorganism is selected as the effective microorganism which has an antagonistic property (Laboratory Guide for Plant Pathology and Microbiology, 459-474, Satoshi Wakimoto et al., Soft Science Inc., 1993).
Each type of the above-described seeds was shaken in a physiological saline solution (a distilled water solution containing 0.85 weight % of sodium chloride) having 2.5 times the weight of the seeds for 2.5 hours. Then, the solution was evenly streaked on an albumin-agar culture medium. In six days after streaking, a colony which has emerged was isolated and, then, streaked on a potato dextrose-broth-agar culture medium (available from Difco Laborarories, Mich., U.S.A.) in a cross application manner against Xanthomonas campestris p.v. campestris to be cultured at 25° C. […] As a result, three bacterial strains under names of TK-12, TK-151, and TK-185 were obtained. Taxonomic properties of these three strains are shown below in Table 1.

Substance	control of growth of Xanthomonas campestris p.v. campestris
Leclercia adecarboxylata TK-151	controls growth of such Xanthomonas campestris p.v. campestris
Pantoea sp. TK-12	controls growth of such Xanthomonas campestris p.v. campestris
Pantoea sp. TK-185	controls growth of such Xanthomonas campestris p.v. campestris

From patent US20020023385A1, “Method of controlling seed disease” (priority 2000, published 2002)
